From patent US10508120B2, “TYK2 inhibitors and uses thereof” (Nimbus Lakshmi, Inc., priority 2017, dated 2019) come the findings set out here.

For one assay, the target named is JAK2 kinase domain (JH1) (Homo sapiens (Human), UniProt O60674). Description: JAK2 Radioactive Kinase Assay. The assay is classed as biochemical. The conditions noted are these: for inhibition at 10 µM: read-out: JAK2 JH1% Inhibition @ 10 μM. In outline:
(§1)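 Values are single-concentration percent inhibition figures. They were obtained with 10 μM compound in a radioactivity-based kinase assay run separately on each enzyme.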

A further assay concerns the target Tyk2 kinase domain (DH1) (Homo sapiens (Human), UniProt P29597). Briefly: Tyk2 Radioactive Kinase Assay. It is filed as biochemical. The conditions noted are these: for inhibition at 10 µM: read-out: Tyk2 JH1% Inhibition @ 10 μM. In outline:
as §1

The target in assay [1] is human TYK2 (JH2domain-pseudokinase) (Homo sapiens (Human), UniProt P29597). Description: TYK2 JH2 Domain Binding Assay (KINOMEscan). In outline: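 Competition binding of a DNA-tagged fusion of human TYK2 JH2 pseudokinase (G556–D888) with NFkB DNA-binding domain, from HEK293 extracts (<0.1 nM final), against immobilised ligand beads; 1 h shaking at room temperature, 0.9% DMSO. Bound kinase quantified by qPCR.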
Chain of human TYK2 (JH2domain-pseudokinase) (P29597 556-888): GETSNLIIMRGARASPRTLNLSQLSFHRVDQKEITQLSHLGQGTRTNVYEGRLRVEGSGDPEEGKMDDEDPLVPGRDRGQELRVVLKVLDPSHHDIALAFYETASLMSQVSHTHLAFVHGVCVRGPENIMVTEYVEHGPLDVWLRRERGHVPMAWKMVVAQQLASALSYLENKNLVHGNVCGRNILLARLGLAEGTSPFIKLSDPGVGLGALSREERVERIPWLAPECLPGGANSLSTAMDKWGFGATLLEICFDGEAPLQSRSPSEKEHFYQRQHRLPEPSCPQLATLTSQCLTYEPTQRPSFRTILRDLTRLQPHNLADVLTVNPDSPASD

For orientation: Kd means the concentration at which binding is half-saturated. High values mean lower affinity, low ones higher affinity. As a reminder, the inhibition is the percentage by which the read-out fell short of the control.

Molecules are shown by their SMILES. Read-outs that look alike come from different tables or passages of the source.

Chain of Tyk2 kinase domain (DH1) (P29597 897-1176): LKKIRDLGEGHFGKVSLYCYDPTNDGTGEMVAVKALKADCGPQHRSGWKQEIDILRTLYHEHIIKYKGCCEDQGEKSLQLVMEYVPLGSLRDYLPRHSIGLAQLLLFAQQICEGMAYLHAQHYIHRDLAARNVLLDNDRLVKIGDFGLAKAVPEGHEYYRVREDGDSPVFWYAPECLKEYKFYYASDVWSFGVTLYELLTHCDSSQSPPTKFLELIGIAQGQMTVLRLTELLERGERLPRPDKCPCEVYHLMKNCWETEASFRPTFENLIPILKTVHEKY
Chain of JAK2 kinase domain (JH1) (O60674 849-1124): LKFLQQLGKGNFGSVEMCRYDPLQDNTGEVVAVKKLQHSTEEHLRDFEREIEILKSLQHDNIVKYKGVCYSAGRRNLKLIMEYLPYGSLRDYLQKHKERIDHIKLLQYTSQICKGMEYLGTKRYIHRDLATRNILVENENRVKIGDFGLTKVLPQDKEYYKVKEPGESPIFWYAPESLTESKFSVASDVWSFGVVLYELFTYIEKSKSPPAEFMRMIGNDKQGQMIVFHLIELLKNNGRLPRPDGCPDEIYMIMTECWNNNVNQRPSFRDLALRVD

On to `CNc1cc(Nc2cccn([C@@H]3CCC[C@@H](O)C3)c2=O)nc2c(C(=O)N[C@H]3CC[C@@H]3OC)cnn12` [I-1129], for which the “JAK2 JH1% Inhibition @ 10 μM” value at JAK2 kinase domain (JH1) (10 μM compound, 10 μM ATP) is reported as “A (percent inhibition at 10 μM lower than 50)”. Moreover, the “Tyk2 JH1% Inhibition @ 10 μM” value at Tyk2 kinase domain (DH1) (10 μM compound, 10 μM ATP) is on record as “A (percent inhibition at 10 μM lower than 50)”. Further, the dissociation constant (Kd) in assay [1] was in the range of 1 to 10 nM.
On to `CNc1cc(Nc2cccn([C@H]3CCCOC3)c2=O)nc2c(C(=O)N[C@H]3[C@@H]4COC[C@@H]43)cnn12` [I-651], for which the inhibition at 10 µM on JAK2 kinase domain (JH1) (compound at 10 μM, ATP 10 μM) was below 50%; at Tyk2 kinase domain (DH1) (compound at 10 μM, ATP 10 μM), below 50%. This molecule came in with an equilibrium dissociation constant (Kd) in assay [1] above 10 nM.
On to `CNc1cc(Nc2cccc([C@H]3CCCCO3)n2)nc2c(C(=O)NCC3(CO)CC3)cnn12` [I-564], for which the inhibition at 10 µM on JAK2 kinase domain (JH1) (compound at 10 μM, ATP 10 μM) is below 50%; at Tyk2 kinase domain (DH1) (compound at 10 μM, ATP 10 μM) it was below 50%. Further, the Kd in assay [1] is below 0.2 nM.
Turning to `CNc1cc(Nc2cccn(-c3oc(C)nc3C)c2=O)nc2c(C(=O)N[C@@H]3C[C@@H]3F)cnn12` [I-938], the inhibition at 10 µM at JAK2 kinase domain (JH1) (10 μM compound, 10 μM ATP) is below 50%; at Tyk2 kinase domain (DH1) (10 μM compound, 10 μM ATP), below 50%. This molecule also displayed an equilibrium dissociation constant (Kd) in assay [1] of 0.2 to 1 nM.
As for `CNc1cc(Nc2cccn([C@H]3CC[C@H](OC)CC3)c2=O)nc2c(C(=O)N[C@@H]3COC[C@@H]3O)cnn12` [I-831], the inhibition at 10 µM on JAK2 kinase domain (JH1) (10 μM compound, 10 μM ATP) is below 50%; on Tyk2 kinase domain (DH1) (10 μM compound, 10 μM ATP), below 50%. Also, in assay [1], the Kd was below 0.2 nM.
As to `CNc1cc(Nc2cccn(-c3ccccn3)c2=O)nc2c(C(=O)N[C@@H]3CC[C@@H]3O)cnn12` [I-806], at JAK2 kinase domain (JH1) (compound at 10 μM, ATP 10 μM), the “JAK2 JH1% Inhibition @ 10 μM” value was “A (percent inhibition at 10 μM lower than 50)”. The “Tyk2 JH1% Inhibition @ 10 μM” value on Tyk2 kinase domain (DH1) (compound at 10 μM, ATP 10 μM) is given as “A (percent inhibition at 10 μM lower than 50)”. In assay [1], this molecule gave a Kd of 0.2 to 1 nM.
Take `CNc1cc(Nc2cccnc2OC(F)(F)F)nc2c(C(=O)NC3CC3)cnn12` [I-90]: the inhibition at 10 µM is below 50% at JAK2 kinase domain (JH1) (compound at 10 μM, ATP 10 μM) and below 50% at Tyk2 kinase domain (DH1) (compound at 10 μM, ATP 10 μM). In assay [1], this molecule yielded a Kd of 0.2 to 1 nM.
Turning to `CNc1cc(Nc2cccnc2OC)nc2c(C(=O)NC3COC3)cnn12` [I-83], the inhibition at 10 µM was below 50% at JAK2 kinase domain (JH1) (compound at 10 μM, ATP 10 μM) and below 50% at Tyk2 kinase domain (DH1) (compound at 10 μM, ATP 10 μM). The same molecule displayed a Kd in assay [1] above 10 nM.
Consider `CNc1cc(-c2cn(CCN3CCOCC3)c3ncccc23)nc2c(C(=O)N[C@@H]3CC[C@H]3O)cnn12` [I-792, N-(2-hydroycyclobutyl)-7-(methylamino)-5-(1-(2-morpholinoethyl)-1H-pyrrolo[2,3-b]pyridine-3-yl)pyrazolo[1,5-a]pyrimidine-3-carboxamide], for which the inhibition at 10 µM was below 50% on JAK2 kinase domain (JH1) (compound at 10 μM, ATP 10 μM) and below 50% on Tyk2 kinase domain (DH1) (compound at 10 μM, ATP 10 μM). This molecule registered a Kd in assay [1] below 0.2 nM.
Turning to `CNc1cc(Nc2cccn([C@@H]3CCCN(CCC#N)C3)c2=O)nc2c(C(=O)N[C@@H]3C[C@@H]3F)cnn12` [I-1041], the inhibition at 10 µM is below 50% on JAK2 kinase domain (JH1) (10 μM compound, 10 μM ATP) and below 50% at Tyk2 kinase domain (DH1) (10 μM compound, 10 μM ATP). Besides, the dissociation constant (Kd) in assay [1] was in the range of 0.2 to 1 nM.
In the case of `CNc1cc(Nc2cccn(CCOC)c2=O)nc2c(C(=O)NC3CC3)cnn12` [I-267], the inhibition at 10 µM on JAK2 kinase domain (JH1) (compound at 10 μM, ATP 10 μM) is below 50%; at Tyk2 kinase domain (DH1) (compound at 10 μM, ATP 10 μM), below 50%. In addition, the Kd in assay [1] was below 0.2 nM.
`CNc1cc(-c2nn(C3CCOCC3)c3ncccc23)nc2c(C(=O)N[C@@H]3C[C@@H]3F)cnn12` (stereo in doubt) [I-450, N-((1R,2S)-2-fluorocyclopropyl)-7-(methylamino)-5-(1-(tetrahydro-2H-pyran-4-yl)-1H-pyrazolo[3,4-b]pyridin-3-yl)pyrazolo[1,5-a]pyrimidine-3-carboxamide]: the inhibition at 10 µM at JAK2 kinase domain (JH1) (compound at 10 μM, ATP 10 μM) is below 50%; on Tyk2 kinase domain (DH1) (compound at 10 μM, ATP 10 μM), below 50%. This molecule also came in with a Kd in assay [1] of 0.2 to 1 nM.
Take `CNc1cc(Nc2cccn([C@@H]3CCCN(CCF)C3)c2=O)nc2c(C(=O)N[C@@H]3C[C@@H]3F)cnn12` [I-901]: the inhibition at 10 µM at JAK2 kinase domain (JH1) (10 μM compound, 10 μM ATP) was below 50%; at Tyk2 kinase domain (DH1) (10 μM compound, 10 μM ATP), below 50%. The molecule further yielded a dissociation constant Kd in assay [1] of 0.2 to 1 nM.
As to `CNc1cc(Nc2cc(C)cnc2OC2CC2)nc2c(C(=O)NC3CCC3)cnn12` [I-278], the inhibition at 10 µM at JAK2 kinase domain (JH1) (compound at 10 μM, ATP 10 μM) is below 50%; at Tyk2 kinase domain (DH1) (compound at 10 μM, ATP 10 μM) it was below 50%. In addition, the Kd in assay [1] was 0.2 to 1 nM.
Take `CNc1cc(Nc2cccn([C@H]3CCC[C@H](O)C3)c2=O)nc2c(C(=O)NC3CC3)cnn12` [I-760]: the inhibition at 10 µM at JAK2 kinase domain (JH1) (compound at 10 μM, ATP 10 μM) is below 50%; on Tyk2 kinase domain (DH1) (compound at 10 μM, ATP 10 μM) it was below 50%. For the same molecule, the Kd in assay [1] was below 0.2 nM.
In the case of `Nc1cc(Nc2cccnc2OC(F)(F)F)nc2c(C(=O)NC3CC3)cnn12` [I-113, 7-amino-N-cyclopropyl-5-((2-(trifluoromethoxy)pyridin-3-yl)amino)pyrazolo[1,5-a]pyrimidine-3-carboxamide], the inhibition at 10 µM on JAK2 kinase domain (JH1) (compound at 10 μM, ATP 10 μM) was above 90%; on Tyk2 kinase domain (DH1) (compound at 10 μM, ATP 10 μM) it was above 90%. The Kd in assay [1] was 1 to 10 nM.
